Test results reported in US20220073536A1 (Rigel Pharmaceuticals, Inc., priority 2003, published 2022).
Counter-ions that a name gives are not always drawn. Like-named read-outs stand apart in the source and are kept apart here.

Test system: cultured human mast cells (CHMC)
Assay: CHMC low cell density IgE activation: tryptase assay
Type: cell-based
In short: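 CHMC at 1000–1500 cells/well were preincubated 1 hr at 37° C., stimulated with anti-IgE for 30 minutes at 37° C., then pelleted. Supernatant tryptase was measured with a fluorogenic substrate after 30 min at room temperature, against un-stimulated control wells.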

[1] = low cell density, IgE activation, 3 pt, read-out: LD Tryptase, CHMC, IgE, 3 pt
[2] = low cell density, IgE activation, 8 pt, read-out: LD Tryptase, CHMC, IgE, 8 pt
[3] = Homo sapiens, Mast cell, low cell density, IgE activation, 8 pt, read-out: LD Tryptase, CHMC, IgE, 8 pt
[4] = Homo sapiens, Mast cell, low cell density, IgE activation, 3 pt, read-out: LD Tryptase, CHMC, IgE, 3 pt
[5] = low cell density CHMC, IgE activation, tryptase readout, 8 pt, read-out: LD Tryptase, CHMC, IgE, 8 pt

In the case of `CC(=O)NCCCn1c(C)nc2cc(Nc3ncc(F)c(Nc4ccc5c(n4)NC(=O)C(C)(C)O5)n3)ccc21` [Compound 953, N2-[1-[3-(N-Acetylamino)propyl]-2-methylbenzimidazol-5-yl]-N4-(2,2-Dimethyl-3-oxo-4H-5-pyrido[1,4]oxazin-6-yl)-5-fluoro-2,4-pyrimidinediamine], the IC50 [1] is reported as less than 10 µM and the IC50 [2] is reported as less than 10 µM.
Work on `Cn1c(CN2CCOCC2)nc2cc(Nc3ncc(F)c(Nc4ccc(Cl)c(Cl)c4)n3)ccc21` [Compound 954, N4-(3,4-Dichlorophenyl)-5-fluoro-N2-[1-methyl-2-(4-morpholinomethyl)benzimidazol-5-yl]-2,4-pyrimidinediamine] yielded an IC50 [1] of less than 10 µM and an IC50 [2] of less than 10 µM.
With `COc1ccc(Nc2nc(Nc3ccc4c(c3)nc(CN3CCOCC3)n4C)ncc2F)cc1Cl` [Compound 955, N4-(3-Chloro-4-methoxyphenyl)-5-fluoro-N2-[1-methyl-2-(4-morpholinomethyl)benzimidazol-5-yl]-2,4-pyrimidinediamine] the IC50 [2] was less than 10 µM.
Work on `Cn1c(CN2CCOCC2)nc2cc(Nc3ncc(F)c(Nc4ccc5c(c4)NC(=O)C(C)(C)O5)n3)ccc21` [Compound 956, N4-(2,2-Dimethyl-3-oxo-4H-benz[1,4]oxazin-6-yl)-5-fluoro-N2-[1-methyl-2-(4-morpholinomethyl)benzimidazol-5-yl]-2,4-pyrimidinediamine] yielded an IC50 [2] of less than 10 µM.
For `C[C@@H]1Oc2ccc(Nc3nc(Nc4ccc5c(c4)nc(CN4CCOCC4)n5C)ncc3F)cc2NC1=O` [Compound 957, (S)-5-Fluoro-N2-[1-methyl-2-(4-morpholinomethyl)benzimidazol-5-yl]-N4-(2-methyl-3-oxo-2H,4H-benz[1,4]oxazin-6-yl)- -2,4-pyrimidinediamine], the IC50 [1] was less than 10 µM and the IC50 [2] was less than 10 µM.
For `Cn1c(CN2CCOCC2)nc2cc(Nc3ncc(F)c(Nc4ccc5c(n4)NC(=O)C(C)(C)O5)n3)ccc21` [Compound 958, N4-(2,2-Dimethyl-3-oxo-4H-5-pyrido[1,4]oxazin-6-yl)-5-fluoro-N2-[1-methyl-2-(4-morpholinomethyl)benzimidazol-5-yl]-2,4-pyrimidinediamine], the IC50 [2] was less than 10 µM.
With `COc1ccc(Nc2nc(Nc3ccc4[nH]c(CN5CCOCC5)nc4c3)ncc2F)cc1Cl` [Compound 960, N4-(3-Chloro-4-methoxyphenyl)-5-fluoro-N2-[2-(4-morpholinomethyl)-1H-benzimidazol-5-yl]-2,4-pyrimidinediamine] the IC50 [2] was less than 10 µM.
`CC1(C)Oc2ccc(Nc3nc(Nc4ccc5[nH]c(CN6CCOCC6)nc5c4)ncc3F)cc2NC1=O` [Compound 961, N4-(2,2-Dimethyl-3-oxo-4H-benz[1,4]oxazin-6-yl)-5-fluoro-N2-[2-(4-morpholinomethyl)-1H-benzimidazol-5-yl]-2,4-pyrimidinediamine] gave an IC50 [3] of less than 10 µM.
Compound `CC1(C)Oc2ccc(Nc3nc(Nc4ccc5[nH]c(CN6CCOCC6)nc5c4)ncc3F)nc2NC1=O` [Compound 962, N4-(2,2-Dimethyl-3-oxo-4H-5-pyrido[1,4]oxazin-6-yl)-5-fluoro-N2-[2-(4-morpholinomethyl)-1H-benzimidazol-5-yl]-2,4-pyrimidinediamine] has an IC50 [3] of less than 10 µM.
Compound `Cc1nc2cc(Nc3ncc(F)c(Nc4ccc5c(c4)NC(=O)C(C)(C)O5)n3)ccc2n1CCCNS(C)(=O)=O` [Compound 963] has an IC50 [3] of less than 10 µM.
For `Cc1nc2cc(Nc3ncc(F)c(Nc4ccc5c(n4)NC(=O)C(C)(C)O5)n3)ccc2n1CCCNS(C)(=O)=O` [Compound 964, N4-(2,2-Dimethyl-3-oxo-4H-5-pyrido[1,4]oxazin-6-yl)-5-fluoro-N2-[2-methyl-1-[3-(N-methylsulfonylamino)propyl]benzimidazol-5-yl]-2,4-pyrimidinediamine], the IC50 [1] was less than 10 µM and the IC50 [2] was less than 10 µM.
For `Cn1c(CS(C)(=O)=O)nc2cc(Nc3ncc(F)c(Nc4ccc(Cl)c(Cl)c4)n3)ccc21` [Compound 965], the IC50 [4] was less than 10 µM.
In the case of `COc1ccc(Nc2nc(Nc3ccc4c(c3)nc(CS(C)(=O)=O)n4C)ncc2F)cc1Cl` [Compound 966], the IC50 [4] is reported as less than 10 µM.
`C[C@@H]1Oc2ccc(Nc3nc(Nc4ccc5c(c4)nc(CS(C)(=O)=O)n5C)ncc3F)cc2NC1=O` [Compound 968] was tested, and the IC50 [4] was less than 10 µM and the IC50 [3] was less than 10 µM.
Work on `Cn1c(CS(C)(=O)=O)nc2cc(Nc3ncc(F)c(Nc4ccc5c(n4)NC(=O)C(C)(C)O5)n3)ccc21` [Compound 969, N4-(2,2-Dimethyl-3-oxo-4H-5-pyrido[1,4]oxazin-6-yl)-5-fluoro-N2-{1-methyl-2-[ (methylsulfonyl)methyl]benzimidazol-5-yl}-2,4-pyrimidinediamine] yielded an IC50 [1] of less than 10 µM and an IC50 [2] of less than 10 µM.
Work on `CCN(CC)Cc1nc2cc(Nc3ncc(F)c(Nc4ccc(Cl)c(Cl)c4)n3)ccc2n1C` [Compound 970] yielded an IC50 [4] of less than 10 µM.
Compound `CCN(CC)Cc1nc2cc(Nc3ncc(F)c(Nc4ccc(OC)c(Cl)c4)n3)ccc2n1C` [Compound 971] has an IC50 [4] of less than 10 µM.
In the case of `CCN(CC)Cc1nc2cc(Nc3ncc(F)c(Nc4ccc5c(c4)NC(=O)C(C)(C)O5)n3)ccc2n1C` [Compound 972], the IC50 [4] is reported as less than 10 µM and the IC50 [3] is reported as less than 10 µM.
`CCN(CC)Cc1nc2cc(Nc3ncc(F)c(Nc4ccc5c(c4)NC(=O)[C@H](C)O5)n3)ccc2n1C` [Compound 973] was tested, and the IC50 [4] was less than 10 µM and the IC50 [3] was less than 10 µM.
In the case of `CCN(CC)Cc1nc2cc(Nc3ncc(F)c(Nc4ccc5c(n4)NC(=O)C(C)(C)O5)n3)ccc2n1C` [Compound 974, N2-[2-(N,N-Diethylaminomethyl)-1-methylbenzimidazol-5-yl]-N4-(2,2-dimethyl-3-oxo-4H-5-pyrido[1,4]oxazin-6-yl)-5-fluoro-2,4-pyrimidinediamine], the IC50 [1] is reported as less than 10 µM and the IC50 [2] is reported as less than 10 µM.
`CC1(C)Oc2ccc(Nc3nc(Nc4ccc5[nH]c(N6CCOCC6)nc5c4)ncc3F)cc2NC1=O` [Compound 976, N4-(2,2-Dimethyl-3-oxo-4H-benz[1,4]oxazin-6-yl)-5-fluoro-N2-[2-(4-morpholino)-1H-benzimidazol-5-yl]-2,4-pyrimidinediamine] showed an IC50 [3] of less than 10 µM.
For `CC1(C)Oc2ccc(Nc3nc(Nc4ccc5[nH]c(N6CCOCC6)nc5c4)ncc3F)nc2NC1=O` [Compound 977, N4-(2,2-Dimethyl-3-oxo-4H-5-pyrido[1,4]oxazin-6-yl)-5-fluoro-N2-[2-(4-morpholino)-1H-benzimidazol-5-yl]-2,4-pyrimidinediamine], the IC50 [3] was less than 10 µM.
Compound `COc1ccc(Nc2nc(Nc3ccc4[nH]c(N5CCOCC5)nc4c3)ncc2F)cc1Cl` [Compound 978, N4-(3-Chloro-4-methoxyphenyl)-5-fluoro-N2-[2-(4-morpholino)-1H-benzimidazol-5-yl]-2,4-pyrimidinediamine] has an IC50 [2] of less than 10 µM.
`CNC(=O)COc1cccc(Nc2ncc(F)c(Nc3ccc4c(n3)NC(=O)C(C)(C)O4)n2)c1` [Compound 984, N4-(2,2-Dimethyl-3-oxo-4H-5-pyrid[1,4]oxazin-6-yl)-5-fluoro-N2-[3-(N-methylamino)carbonylmethyleneoxyphenyl]-2,4-pyrimidinediamine Benzensulfonic Acid Salt] showed an IC50 (Homo sapiens, Mast cell, read-out: LD Tryptase, CHMC, IgE, 3 pt) of less than 10 µM and an IC50 (Homo sapiens, Mast cell, read-out: LD Tryptase, CHMC, IgE, 8 pt) of less than 10 µM.
In the case of `CNC(=O)COc1cccc(Nc2ncc(F)c(Nc3ccc4c(n3)NC(=O)C(C)(C)O4)n2)c1` [Compound 986, N4-(2,2-Dimethyl-3-oxo-4H-5-pyrid[1,4]oxazin-6-yl)-5-fluoro-N2-[3-(N-methylamino)carbonylmethyleneoxyphenyl]-2,4-pyrimidinediamine Hydrogen Chloride Salt], the IC50 [1] is reported as less than 10 µM and the IC50 [2] is reported as less than 10 µM.
With `CNC(=O)COc1cccc(Nc2ncc(F)c(Nc3ccc4c(c3)NCC(C)(C)O4)n2)c1` [Compound 1000, N4-(3,4-Dihydro-2,2-dimethyl-4H-benz[1,4]oxazin-6-yl)-5-fluoro-N2-[3-(N-methylamino)carbonylmethyleneoxyphenyl]-2,4-pyrimidinediamine] the IC50 [2] was less than 10 µM.
`COc1c(C)cc(Nc2ncc(F)c(Nc3ccc4c(c3)NCC(C)(C)O4)n2)cc1Cl` [Compound 1001, N2-(3-Chloro-4-methoxy-5-methylphenyl)-N4-(3,4-dihydro-2,2-dimethyl-4H-benz[1,4]oxazin-6-yl)-5-fluoro-2,4-pyrimidinediamine] gave an IC50 [2] of less than 10 µM.
`COc1cc(Nc2ncc(F)c(Nc3ccc4c(c3)NCC(C)(C)O4)n2)cc(OC)c1` [Compound 1002, N4-(3,4-Dihydro-2,2-dimethyl-4H-benz[1,4]oxazin-6-yl)-N2-(3,5-dimethoxyphenyl)-5-fluoro-2,4-pyrimidinediamine] gave an IC50 [2] of less than 10 µM.
`CC(C)c1cccc(Nc2ncc(F)c(Nc3ccc4c(n3)NC(=O)C(C)(C)O4)n2)c1` [Compound 1003, N4-(2,2-Dimethyl-3-oxo-4H-5-pyrid[1,4]oxazin-6-yl)-5-fluoro-N2-(3-isopropylphenyl)-2,4-pyrimidinediamine] showed an IC50 [1] of less than 10 µM and an IC50 [2] of less than 10 µM.
`CC1(C)Oc2ccc(Nc3nc(Nc4ccc(-c5ncco5)cc4)ncc3F)nc2NC1=O` [Compound 1035, N4-(2,2-Dimethyl-3-oxo-4H-5-pyrid[1,4]oxazin-6-yl)-5-fluoro-N2-[4-(oxazol-2-yl)phenyl]-2,4-pyrimidinediamine] was tested, and the IC50 [5] was greater than 10 µM.
Work on `COc1c(C)cc(Nc2ncc(F)c(Nc3ccc4c(n3)NC(=O)CO4)n2)cc1C` [Compound 1059, N2-(3,5-Dimethyl-4-methoxyphenyl)-5-fluoro-N4-(3-oxo-2H,4H-5-pyrid[1,4]oxazin-6-yl)-2,4-pyrimidinediamine] yielded an IC50 [5] of less than 10 µM.
Compound `Cc1c(O)cccc1Nc1ncc(F)c(Nc2ccc3c(c2)NC(=O)C(C)(C)O3)n1` [Compound 1060, N4-(2,2-Dimethyl-3-oxo-4H-benz[1,4]oxazin-6-yl)-5-fluoro-N2-(3-hydroxy-2-methylphenyl)-2,4-pyrimidinediamine] has an IC50 (Homo sapiens, Mast cell, low cell density CHMC, IgE activation, tryptase readout, 8 pt, read-out: LD Tryptase, CHMC, IgE, 8 pt) of less than 10 µM.
